The text below walks through data of US20110105457A1, “HETEROCYCLIC COMPOUND HAVING INHIBITORY ACTIVITY ON PI3K” (SHIONOGI & CO., LTD., priority 2008, published 2011).

As usually defined, the solubility is the concentration that dissolves in the medium under given conditions. Low readings indicate little dissolved substance, high ones much dissolved substance.

Data set [1] is described as follows: Metabolic stability test, pooled human liver microsome. The class given is in vitro ADME. The settings on record: human liver microsome 0.5 mg protein/mL, NADPH, 37 degrees Celsius, 30 minutes. The protocol:
After a subject compound was reacted for a certain time using a pooled human liver microsome commercially available, a reacted sample and an unreacted sample are compared to calculate a survival ratio, and then the degree of metabolism in the liver was evaluated.
0.2 mL of a buffer solution (50 mmol/L of Tris-HCl in pH 7.4, 150 mmol/L of potassium chloride, and 10 mmol/L of magnesium chloride) containing a human liver microsome of 0.5 mg protein/mL was reacted in the presence of 1 mmol/L NADPH at 37 degrees Celsius for 0 or 30 minutes (oxidative reaction). After reacting, 50 μL of the reaction solution was added to 100 μL of a solution of methanol/acetonitrile (1/1(v/v)), mixed, and then centrifuged at 3000 rpm for 15 minutes. A test compound in the supernatant was quantitated with LC/MS/MS. An amount of the compound remained at a reaction time of 0 minute was defined as 100%, and, based on that, an amount of the test compound remained after the reaction was calculated.

A further data set has as its target PI-3 kinase γ (Homo sapiens, UniProt P48736). The experiment in a line: PI3Kγ inhibitory activity, PI3-kinase HTRF assay (Millipore). The settings on record: 0.5 h; compound 50 μM; read-out: Inhibition ratio % (50 μM). The data set is classed as biochemical. The protocol:
(Method) The PI3Kγ inhibitory activity of a compound was evaluated using PI3-kinase HTRF™ assay (Millipore) according to the following procedure.
To each well of a testing plate was added 5 μL of a compound solution comprising 10% DMSO (200 μM as the concentration of the compound), 5 μL of 40 μM phosphatidylinositol (4,5)-bisphosphate/20 mM MgCl2/10 mM DTT, and 5 μL of 80 μg/mL PI-3 kinase γ/10 mM MgCl2/5 mM DTT, and then stood for 10 minutes.
Then, 5 μL of 40 μM ATP/10 mM MgCl2/5 mM DTT was added thereto. After reacting for 30 minutes at room temperature, 5 μL of a solution comprising EDTA and biotinylated phosphatidylinositol (3,4,5)-triphosphate was added to quench the reaction.
5 μL of a detection reagent comprising a europium-labeled anti-GST antibody, the GST-tagged PH domain, and allophycocyanin-labeled streptavidin was added thereto. After 18 hours, HTRF (excitation wavelength: 330 nm, measuring wavelengths: 620 nm and 665 nm) was measured.
A value of dividing an amount of fluorescence obtained at the measuring wavelength 665 nm by an amount of fluorescence obtained at 620 nm was defined as an HTRF ratio. The HTRF ratio in the absence of a compound was defined as 100% activity, and the HTRF ratio in the absence of PI-3 kinase γ was defined as 0% activity to calculate an inhibition ratio.
A general note: Time-resolved FRET reads energy transfer from a long-lived donor to a nearby acceptor.

The target in data set [2] is T1, human ether-a-go-go related gene (hERG) channel (Homo sapiens, UniProt Q12809).
T1 construct: expressed in transfected cells; host or cells: HEK293
The experiment in a line: hERG test, whole-cell patch-clamp in HEK293 cells. The class given is cell-based. Particulars: HEK293 cells expressing hERG; concentration not given. From the text:
For the purpose of a risk evaluation of QT interval extension of electrocardiogram, using the HEK293 cell that was made express human ether-a-go-go related gene (hERG) channel, the activity on delayed rectification K^+ current (IKr) playing an important role in a cardiac ventricle repolarization process was examined.
Using an automatic patch-clamp system (PatchXpress 7000A, Axon Instruments Inc.), by a whole-cell patch-clamp method, after the cell was maintained at a membrane potential of −80 mV, IKr induced on giving depolarizing stimulation of +50 mV for 2 seconds and further repolarizing stimulation of −50 mV for 2 seconds was recorded. After generated current became stable, extracellular fluid (NaCl: 137 mmol/L, KCl: 4 mmol/L, CaCl2.2H2O: 1.8 mmol/L, MgCl2.6H2O: 1 mmol/L, glucose: 10 mmol/L, HEPES (4-(2-hydroxyethyl)-1-piperazineethanesulfonic acid): 10 mmol/L, pH=7.4) dissolving a test substance at an intended concentration was applied to the cell for 10 minutes under room temperature condition. From the IKr obtained, using an analysis soft (DataXpress ver. 1, Molecular Devices Corporation), a current value in a membrane potential maintained was used as a standard, and the absolute value of the maximum tail current was measured. Moreover, an inhibition ratio for the maximum tail current prior to the application of the test substance was calculated, and then compared with a group of media-application (0.1% dimethylsulfoxide solution) to evaluate influence of the test substance on IKr.
On the technique in general: The hERG channel carries a current that helps repolarise heart muscle cells.

A further data set in a line: Solubility test. The data set is classed as physicochemical. The settings on record: 25 °C, fassgf or other biorelevant, kinetic from dmso stock, artificial intestinal juice pH 6.8, 1% DMSO, 25 degrees Celsius. The protocol: 10 mM compound solution was prepared using DMSO, and then 6 μL of the compound solution was added to 594 μL of artificial intestinal juice in pH 6.8 (to 250 mL of 0.2 mol/L potassium dihydrogen phosphate reagent solution was added 118 mL of 0.2 mol/L NaOH reagent solution and water to provide a final volume of 1000 mL). After standing at 25 degrees Celsius for 16 hours, the mixed solution was filtrated with suction. The filtrate was diluted twice with methanol/water (1/1), and then a concentration in the filtration was measured with HPLC or LC/MS/MS by the absolute calibration method.

A value given as a limit tells only on which side of the number the result lay.

PI-3 kinase γ, sequence (P48736 whole entry): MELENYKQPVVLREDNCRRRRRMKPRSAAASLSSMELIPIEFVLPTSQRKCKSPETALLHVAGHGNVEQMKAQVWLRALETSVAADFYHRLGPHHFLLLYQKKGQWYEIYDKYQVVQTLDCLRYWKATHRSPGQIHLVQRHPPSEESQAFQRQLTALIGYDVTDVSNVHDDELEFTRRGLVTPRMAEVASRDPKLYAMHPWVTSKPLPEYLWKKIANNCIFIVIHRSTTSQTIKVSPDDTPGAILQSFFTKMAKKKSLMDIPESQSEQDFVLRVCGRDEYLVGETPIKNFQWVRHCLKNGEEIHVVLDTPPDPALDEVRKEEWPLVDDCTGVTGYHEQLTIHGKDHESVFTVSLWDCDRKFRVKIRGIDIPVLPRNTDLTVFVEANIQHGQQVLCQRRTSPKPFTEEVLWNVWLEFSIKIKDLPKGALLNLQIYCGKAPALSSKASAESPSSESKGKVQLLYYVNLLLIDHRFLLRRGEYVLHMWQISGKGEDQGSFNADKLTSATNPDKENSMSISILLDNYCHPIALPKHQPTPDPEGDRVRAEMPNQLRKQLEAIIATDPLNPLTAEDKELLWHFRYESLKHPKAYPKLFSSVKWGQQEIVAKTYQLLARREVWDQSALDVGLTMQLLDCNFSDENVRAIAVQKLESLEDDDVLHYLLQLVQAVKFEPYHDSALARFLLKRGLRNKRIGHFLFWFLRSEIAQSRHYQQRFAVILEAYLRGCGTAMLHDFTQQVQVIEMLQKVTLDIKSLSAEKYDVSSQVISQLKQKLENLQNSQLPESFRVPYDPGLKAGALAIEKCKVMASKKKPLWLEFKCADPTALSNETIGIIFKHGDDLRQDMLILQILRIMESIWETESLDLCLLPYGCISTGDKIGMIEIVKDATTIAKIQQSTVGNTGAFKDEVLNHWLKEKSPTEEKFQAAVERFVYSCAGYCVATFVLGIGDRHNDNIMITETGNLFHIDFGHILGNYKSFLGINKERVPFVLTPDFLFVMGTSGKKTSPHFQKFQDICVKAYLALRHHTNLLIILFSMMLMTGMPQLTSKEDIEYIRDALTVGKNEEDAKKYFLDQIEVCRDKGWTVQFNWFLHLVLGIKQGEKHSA
T1 sequence (Q12809 whole entry): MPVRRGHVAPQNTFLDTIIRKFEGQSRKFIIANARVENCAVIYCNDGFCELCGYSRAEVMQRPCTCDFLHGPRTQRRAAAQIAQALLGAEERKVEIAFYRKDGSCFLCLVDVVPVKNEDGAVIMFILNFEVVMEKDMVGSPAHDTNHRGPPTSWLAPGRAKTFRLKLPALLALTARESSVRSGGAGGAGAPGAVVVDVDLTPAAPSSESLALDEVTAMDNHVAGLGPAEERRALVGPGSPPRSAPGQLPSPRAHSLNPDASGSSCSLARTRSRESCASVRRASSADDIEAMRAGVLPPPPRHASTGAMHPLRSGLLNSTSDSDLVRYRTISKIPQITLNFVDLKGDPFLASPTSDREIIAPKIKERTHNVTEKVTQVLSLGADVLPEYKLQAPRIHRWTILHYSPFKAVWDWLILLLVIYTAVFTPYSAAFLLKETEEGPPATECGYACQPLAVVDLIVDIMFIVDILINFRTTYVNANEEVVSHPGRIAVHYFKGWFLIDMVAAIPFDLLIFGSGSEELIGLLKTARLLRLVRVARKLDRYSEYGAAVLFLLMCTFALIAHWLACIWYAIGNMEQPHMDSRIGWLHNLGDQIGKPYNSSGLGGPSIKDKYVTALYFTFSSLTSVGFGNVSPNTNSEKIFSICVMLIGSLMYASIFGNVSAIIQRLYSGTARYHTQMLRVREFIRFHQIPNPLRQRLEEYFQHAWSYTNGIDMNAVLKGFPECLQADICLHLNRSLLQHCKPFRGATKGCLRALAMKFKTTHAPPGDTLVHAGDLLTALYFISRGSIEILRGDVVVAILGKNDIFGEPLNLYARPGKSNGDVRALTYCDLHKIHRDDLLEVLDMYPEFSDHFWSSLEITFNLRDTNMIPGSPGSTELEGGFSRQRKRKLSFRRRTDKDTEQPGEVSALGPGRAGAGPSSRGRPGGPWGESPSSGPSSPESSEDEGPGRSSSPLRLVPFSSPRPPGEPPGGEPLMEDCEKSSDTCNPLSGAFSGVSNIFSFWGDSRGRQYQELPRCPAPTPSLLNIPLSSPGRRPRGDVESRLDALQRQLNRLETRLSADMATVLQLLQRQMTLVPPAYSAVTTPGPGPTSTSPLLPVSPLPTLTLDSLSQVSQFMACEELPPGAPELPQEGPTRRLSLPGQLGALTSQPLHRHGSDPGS

Turning to `COc1cccc(-c2ccc3nc(NC(=O)CCCn4cncn4)cn3n2)c1` [Compound I-210], the “Amount of the test compound remained after the reaction” value (“Amount of the test compound remained” below) in data set [1] is 97%. Moreover, on PI-3 kinase γ, the inhibition at 50 µM came out at 85%.

Consider `CCOC(=O)c1nc[nH]c1C(=O)Nc1cn2nc(-c3cccc(OC)c3)ccc2n1` [Compound I-208], for which the “Inhibition ratio for the maximum tail current (IKr)” value (from here on “Inhibition ratio”) in data set [2] was 0.5%.

On to `COc1cccc(-c2ccc3nc(NC(=O)c4ccccc4Cl)cn3n2)c1` [Compound I-163], for which the “Amount of the test compound remained” value in data set [1] is listed as 98.1%. The inhibition at 50 µM at PI-3 kinase γ turned out to be 58%.

As to `CNC(=O)Nc1cn2nc(-c3cccc(C(N)=O)c3)ccc2n1` [Compound I-29], in data set [1], the “Amount of the test compound remained” value was found to be 98.8%. Besides, at PI-3 kinase γ, the inhibition at 50 µM amounted to 84%.

In the data set “Solubility test”, `COc1cccc(-c2ccc3nc(NC(=O)NCCO)cn3n2)c1` [Compound I-270] showed a solubility at 16 h greater than 50 µM. Besides, at PI-3 kinase γ, the inhibition at 50 µM was 82%.

Consider `COc1cccc(-c2ccc3nc(NC(=O)Nc4ccccc4)cn3n2)c1` [Compound I-118], for which the “Amount of the test compound remained” value in data set [1] amounted to 95.9%. Moreover, the inhibition at 50 µM at PI-3 kinase γ was 64%.

`CNC(=O)Nc1cn2nc(-c3cccc(C(=O)O)c3)ccc2n1` [Compound I-28]: the “Amount of the test compound remained” value in data set [1] is 98.6%. Besides, the solubility at 16 h in the data set “Solubility test” is greater than 50 µM. The inhibition at 50 µM at PI-3 kinase γ turned out to be 89%.

`CNC(=O)Nc1cn2nc(C(=O)c3ccccc3)ccc2n1` [Compound I-280]: in data set [2], the “Inhibition ratio” value turned out to be 5.8%. At PI-3 kinase γ, the inhibition at 50 µM is 92%.

On to `CCC(C)C(=O)Nc1cn2nc(-c3cccc(OC)c3)ccc2n1` (stereo not shown) [Compound I-182], for which the “Inhibition ratio” value in data set [2] was 9.3%. In addition, the inhibition at 50 µM at PI-3 kinase γ is 98%.

In “Solubility test”, `CNC(=O)Nc1cn2nc(-c3cccc(S(C)(=O)=O)c3)ccc2n1` [Compound I-75] came in with a solubility at 16 h greater than 50 µM. Moreover, at PI-3 kinase γ, the inhibition at 50 µM stood at 84%.

In the case of `CNC(=O)Nc1cn2nc(-c3cccc(C(=O)N4CCCC4)c3)ccc2n1` [Compound I-137], the “Inhibition ratio” value in data set [2] was 8.4%. Besides, the inhibition at 50 µM at PI-3 kinase γ came to 81%.

With `COc1cccc(-c2ccc3nc(Nc4ccccn4)cn3n2)c1` [Compound I-220], the inhibition at 50 µM at PI-3 kinase γ came out at 59%.

As for `CNC(=O)Nc1cn2nc(COc3cccnc3)ccc2n1` [Compound I-218], on PI-3 kinase γ, the inhibition at 50 µM was determined as 63%.

Regarding `COc1cccc(-c2ccc3nc(NC(=O)N4CCC[C@H]4CO)cn3n2)c1` [Compound I-240], the inhibition at 50 µM at PI-3 kinase γ was determined as 73%.

Turning to `COc1cccc(-c2ccc3nc(NC(=O)c4ccccn4)cn3n2)c1` [Compound I-168], at PI-3 kinase γ, the inhibition at 50 µM stood at 64%.

Take `COc1cccc(-c2ccc3nc(Nc4ccc(CO)cn4)cn3n2)c1` [Compound I-289]: the inhibition at 50 µM at PI-3 kinase γ was determined as 127%.

Consider `CNC(=O)Nc1cn2nc(C(=O)NC3CCCC3)ccc2n1` [Compound I-50], for which the inhibition at 50 µM at PI-3 kinase γ is 89%.

For the compound `CNC(=O)Nc1cn2nc(C(=O)NCc3ccc(OC)cc3)ccc2n1` [Compound I-44], the inhibition at 50 µM at PI-3 kinase γ was determined as 57%.

On to `COc1cccc(-c2ccc3nc(Nc4ccccc4)cn3n2)c1` [Compound I-27], for which, at PI-3 kinase γ, the inhibition at 50 µM turned out to be 69%.

In the case of `COc1cccc(-c2ccc3nc(NC(=O)Nc4ccc5[nH]ccc5c4)cn3n2)c1` [Compound I-241], on PI-3 kinase γ, the inhibition at 50 µM turned out to be 67%.

Consider `COc1cccc(-c2ccc3nc(NC(=O)NCC(=O)OC(C)(C)C)cn3n2)c1` [Compound I-248], for which the “Inhibition ratio” value in data set [2] amounted to 6.7%. Further, the inhibition at 50 µM at PI-3 kinase γ worked out at 71%.

For the compound `COc1cccc(-c2ccc3nc(Nc4cccc(O)n4)cn3n2)c1` [Compound I-290], on PI-3 kinase γ, the inhibition at 50 µM turned out to be 92%.

Turning to `COc1cccc(-c2ccc3nc(NC(=O)NCCC(=O)N4CCOCC4)cn3n2)c1` [Compound I-268], at PI-3 kinase γ, the inhibition at 50 µM was 62%.

As to `CNC(=O)Nc1cn2nc(C(=O)Nc3ccccc3)ccc2n1` [Compound I-43], the inhibition at 50 µM on PI-3 kinase γ was 79%.

Consider `CNC(=O)Nc1cn2nc(-c3cccc(CCCO)c3)ccc2n1` [Compound I-136], for which, in “Solubility test”, the solubility at 16 h is greater than 50 µM. The inhibition at 50 µM on PI-3 kinase γ was determined as 79%.

Consider `CNC(=O)Nc1cn2nc(N3CCCC3=O)ccc2n1` [Compound I-6], for which the inhibition at 50 µM on PI-3 kinase γ was 67%.

`COc1cccc(-c2ccc3nc(NC(=O)NC4CCCC4)cn3n2)c1` [Compound I-115]: the inhibition at 50 µM on PI-3 kinase γ came out at 78%.

With `COc1cccc(-c2ccc3nc(NC(=O)CCCN4CCCC4=O)cn3n2)c1` [Compound I-209], the inhibition at 50 µM at PI-3 kinase γ stood at 81%.

For the compound `CNC(=O)Nc1cn2nc(-c3cccc(O)c3)ccc2n1` [Compound I-152], on PI-3 kinase γ, the inhibition at 50 µM was found to be 80%.

For the compound `CNC(=O)Nc1cn2nc(Nc3cccc(N(C)C)c3)ccc2n1` [Compound I-161], at PI-3 kinase γ, the inhibition at 50 µM amounted to 102%.

With `COc1cccc(-c2ccc3nc(NC(=O)NCCCN4CCCC4=O)cn3n2)c1` [Compound I-235], at PI-3 kinase γ, the inhibition at 50 µM worked out at 78%.

On to `COc1cccc(-c2ccc3nc(NC(=O)NCc4ccoc4)cn3n2)c1` [Compound I-254], for which the inhibition at 50 µM on PI-3 kinase γ is 77%.

Take `COc1cccc(-c2ccc3nc(NC(=O)NC4CCCCC4)cn3n2)c1` [Compound I-109]: the inhibition at 50 µM on PI-3 kinase γ was found to be 99%.

`CNC(=O)Nc1cn2nc(-c3cccc(OC(C)=O)c3)ccc2n1` [Compound I-146]: on PI-3 kinase γ, the inhibition at 50 µM turned out to be 64%.

In the case of `CNC(=O)Nc1cn2nc(C3=CCCC3)ccc2n1` [Compound I-79], at PI-3 kinase γ, the inhibition at 50 µM was 81%.

Turning to `COc1cccc(-c2ccc3nc(NC(=O)NC(C)C)cn3n2)c1` [Compound I-113], the inhibition at 50 µM on PI-3 kinase γ was determined as 86%.

On to `CNC(=O)Nc1cn2nc(-c3cccc(N(C)C)c3)ccc2n1` [Compound I-143], for which the “Inhibition ratio” value in data set [2] came out at 7.8%. Besides, the inhibition at 50 µM on PI-3 kinase γ amounted to 102%.

With `COc1cccc(-c2ccc3nc(NC(=O)NCc4ccco4)cn3n2)c1` [Compound I-234], on PI-3 kinase γ, the inhibition at 50 µM was 71%.

Take `CNC(=O)Nc1cn2nc(-c3cccc(OC)c3)ccc2n1` [Compound I-36]: the inhibition at 50 µM on PI-3 kinase γ came to 90%.

As to `COc1cccc(-c2ccc3nc(NC(=O)c4ccc[nH]4)cn3n2)c1` [Compound I-180], on PI-3 kinase γ, the inhibition at 50 µM amounted to 96%.

For the compound `CNC(=O)Nc1cn2nc(-c3cccc(C(=O)NCC(C)C)c3)ccc2n1` [Compound I-140], the inhibition at 50 µM on PI-3 kinase γ is 60%.
